Assays:
[1] = target: T1, GABA-A receptor; alpha-5/beta-3/gamma-2 (Homo sapiens, UniProt P31644+P18507+P28472); assay: Binding affinity for human recombinant gamma-aminobutyric-acid (GABA) A receptor alpha-5-beta-3-gamma-2
T1 sequence (P31644 whole entry): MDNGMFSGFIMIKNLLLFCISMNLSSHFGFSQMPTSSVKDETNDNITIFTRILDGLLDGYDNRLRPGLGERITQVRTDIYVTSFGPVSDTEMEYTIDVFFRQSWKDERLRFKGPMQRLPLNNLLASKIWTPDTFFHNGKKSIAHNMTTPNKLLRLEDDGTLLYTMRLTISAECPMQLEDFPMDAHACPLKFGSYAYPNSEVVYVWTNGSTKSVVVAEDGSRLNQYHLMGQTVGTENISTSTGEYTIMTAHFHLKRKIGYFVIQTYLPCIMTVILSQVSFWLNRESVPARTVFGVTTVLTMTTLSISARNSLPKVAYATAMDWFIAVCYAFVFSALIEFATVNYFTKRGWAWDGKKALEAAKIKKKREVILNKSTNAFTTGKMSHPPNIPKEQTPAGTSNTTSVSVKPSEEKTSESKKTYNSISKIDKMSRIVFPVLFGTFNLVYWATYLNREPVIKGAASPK
T1 sequence (P18507 whole entry): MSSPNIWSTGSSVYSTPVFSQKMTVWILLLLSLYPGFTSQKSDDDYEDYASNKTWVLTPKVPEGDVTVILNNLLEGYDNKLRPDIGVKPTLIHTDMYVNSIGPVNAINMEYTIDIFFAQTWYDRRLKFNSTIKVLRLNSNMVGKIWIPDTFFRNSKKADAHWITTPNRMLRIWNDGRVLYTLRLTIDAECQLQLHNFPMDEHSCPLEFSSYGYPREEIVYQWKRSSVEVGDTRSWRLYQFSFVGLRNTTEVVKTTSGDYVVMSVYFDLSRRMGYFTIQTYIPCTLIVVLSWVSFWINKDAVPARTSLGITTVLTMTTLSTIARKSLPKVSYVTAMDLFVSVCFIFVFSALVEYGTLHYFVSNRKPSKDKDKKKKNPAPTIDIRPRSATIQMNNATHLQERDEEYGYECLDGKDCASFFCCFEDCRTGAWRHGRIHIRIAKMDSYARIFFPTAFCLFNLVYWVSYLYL
T1 sequence (P28472 whole entry): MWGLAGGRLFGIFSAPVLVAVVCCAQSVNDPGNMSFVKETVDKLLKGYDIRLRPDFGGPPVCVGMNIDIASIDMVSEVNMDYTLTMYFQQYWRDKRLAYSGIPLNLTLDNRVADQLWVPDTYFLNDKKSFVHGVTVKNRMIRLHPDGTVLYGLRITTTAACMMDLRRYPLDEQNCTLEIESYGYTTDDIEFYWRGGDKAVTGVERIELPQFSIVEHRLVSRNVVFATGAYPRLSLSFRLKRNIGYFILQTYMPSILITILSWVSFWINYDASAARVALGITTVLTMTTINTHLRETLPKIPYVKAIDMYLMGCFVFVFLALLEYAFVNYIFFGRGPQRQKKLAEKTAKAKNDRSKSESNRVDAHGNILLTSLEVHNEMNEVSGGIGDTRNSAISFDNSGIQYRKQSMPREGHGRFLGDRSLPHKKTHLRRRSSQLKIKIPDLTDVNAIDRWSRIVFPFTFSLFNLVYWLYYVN

[2] = target: T2, Gamma-aminobutyric acid receptor subunit alpha-3/beta-3/gamma-2 (Homo sapiens, UniProt P34903+P18507+P28472); assay: Binding affinity for human recombinant gamma-aminobutyric-acid (GABA) A receptor alpha-3-beta-3-gamma-2
T2 sequence (P34903 whole entry): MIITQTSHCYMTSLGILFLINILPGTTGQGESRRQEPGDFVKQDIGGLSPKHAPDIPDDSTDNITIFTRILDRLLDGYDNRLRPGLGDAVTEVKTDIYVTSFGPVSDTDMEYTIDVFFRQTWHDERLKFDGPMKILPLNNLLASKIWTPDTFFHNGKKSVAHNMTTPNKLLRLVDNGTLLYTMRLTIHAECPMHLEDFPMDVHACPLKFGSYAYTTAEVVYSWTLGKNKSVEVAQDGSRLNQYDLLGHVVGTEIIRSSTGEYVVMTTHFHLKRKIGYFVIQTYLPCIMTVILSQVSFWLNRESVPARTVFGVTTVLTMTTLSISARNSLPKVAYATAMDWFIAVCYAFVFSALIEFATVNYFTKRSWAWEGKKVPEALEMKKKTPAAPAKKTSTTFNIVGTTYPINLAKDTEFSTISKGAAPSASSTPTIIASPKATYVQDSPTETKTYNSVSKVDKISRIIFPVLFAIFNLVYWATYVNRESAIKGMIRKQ
T2 sequence (P18507 whole entry): T1 sequence (P18507 whole entry)
T2 sequence (P28472 whole entry): T1 sequence (P28472 whole entry)

[3] = target: T3, GABA-A receptor; alpha-2/beta-3/gamma-2 (Homo sapiens, UniProt P47869+P18507+P28472); assay: Binding affinity to human recombinant gamma-aminobutyric-acid (GABA) A receptor alpha-2-beta-3-gamma-2
T3 sequence (P47869 whole entry): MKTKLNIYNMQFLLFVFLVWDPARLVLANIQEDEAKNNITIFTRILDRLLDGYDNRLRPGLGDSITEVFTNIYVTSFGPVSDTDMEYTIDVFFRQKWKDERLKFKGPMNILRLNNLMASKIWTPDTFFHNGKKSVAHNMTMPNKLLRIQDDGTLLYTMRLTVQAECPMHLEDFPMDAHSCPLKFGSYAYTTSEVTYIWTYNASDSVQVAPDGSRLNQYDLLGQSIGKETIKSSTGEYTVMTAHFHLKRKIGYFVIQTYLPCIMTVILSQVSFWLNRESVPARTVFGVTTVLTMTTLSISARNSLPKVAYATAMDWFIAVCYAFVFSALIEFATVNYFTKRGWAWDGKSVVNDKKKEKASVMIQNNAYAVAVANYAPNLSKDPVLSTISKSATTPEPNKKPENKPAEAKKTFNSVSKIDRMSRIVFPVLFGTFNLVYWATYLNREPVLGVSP
T3 sequence (P18507 whole entry): T1 sequence (P18507 whole entry)
T3 sequence (P28472 whole entry): T1 sequence (P28472 whole entry)

[4] = target: Gamma-aminobutyric acid receptor subunit alpha-6/beta-3/gamma-2 (Homo sapiens, UniProt Q16445+P18507+P28472); assay: Binding affinity for human recombinant gamma-aminobutyric-acid (GABA) A receptor alpha-6-beta-3-gamma-2
Chain of Gamma-aminobutyric acid receptor subunit alpha-6/beta-3/gamma-2 (Q16445 whole entry, one chain of several): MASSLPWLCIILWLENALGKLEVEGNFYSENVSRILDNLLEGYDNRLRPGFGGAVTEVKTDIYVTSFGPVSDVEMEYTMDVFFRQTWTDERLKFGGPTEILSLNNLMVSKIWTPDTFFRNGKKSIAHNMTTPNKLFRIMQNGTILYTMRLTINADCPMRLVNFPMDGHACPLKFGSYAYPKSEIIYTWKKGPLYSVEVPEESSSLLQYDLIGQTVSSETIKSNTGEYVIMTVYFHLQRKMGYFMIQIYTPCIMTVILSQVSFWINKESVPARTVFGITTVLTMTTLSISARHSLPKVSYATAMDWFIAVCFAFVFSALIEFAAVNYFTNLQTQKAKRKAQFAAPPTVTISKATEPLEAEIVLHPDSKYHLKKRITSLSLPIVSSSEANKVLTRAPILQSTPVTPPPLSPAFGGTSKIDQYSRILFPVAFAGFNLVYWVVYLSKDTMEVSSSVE

[5] = target: T4, Gamma-aminobutyric acid receptor subunit alpha-1/beta-3/gamma-2 (Homo sapiens, UniProt P14867+P18507+P28472); assay: Binding affinity for human recombinant gamma-aminobutyric-acid (GABA) A receptor alpha-1-beta-3-gamma-2
T4 sequence (P14867 whole entry): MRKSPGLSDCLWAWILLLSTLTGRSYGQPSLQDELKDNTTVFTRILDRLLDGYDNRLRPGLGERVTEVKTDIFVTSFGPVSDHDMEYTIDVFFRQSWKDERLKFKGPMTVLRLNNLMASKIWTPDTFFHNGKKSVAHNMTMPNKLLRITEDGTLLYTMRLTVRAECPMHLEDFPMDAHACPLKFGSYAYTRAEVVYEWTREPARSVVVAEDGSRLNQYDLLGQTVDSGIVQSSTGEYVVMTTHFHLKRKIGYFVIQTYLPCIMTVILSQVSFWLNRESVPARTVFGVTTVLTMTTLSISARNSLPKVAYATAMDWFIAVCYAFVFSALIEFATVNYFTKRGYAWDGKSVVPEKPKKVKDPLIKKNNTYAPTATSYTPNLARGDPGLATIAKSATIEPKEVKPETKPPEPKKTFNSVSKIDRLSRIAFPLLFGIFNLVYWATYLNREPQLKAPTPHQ
T4 sequence (P18507 whole entry): T1 sequence (P18507 whole entry)
T4 sequence (P28472 whole entry): T1 sequence (P28472 whole entry)

`CCOC(=O)c1[nH]cc2nc3ccccc3c-2c1COC` was tested. Which Ki [1] did it give?
The Ki was 10 nM.

And the Ki [2]?
Its Ki is 4.9 nM.

For `Clc1ccc2c(c1)[nH]c1c3c4ccccc4nc-3c[nH]c12`, which Ki [3] is on record?
The Ki was 12 nM.

And the Ki [4]?
Its Ki is over 10000 nM.

And the Ki [2]?
The Ki was 24 nM.

With `COc1ccc2c(c1)[nH]c1c3c4ccccc4nc-3c[nH]c12` as the compound, how does the Ki [3] read?
The Ki was 12 nM.

And the Ki [4]?
Its Ki is over 10000 nM.

Which Ki [2] does the source give for `CCOC(=O)c1[nH]cc2nc3ccc(OCc4ccccc4)cc3c-2c1COC` [6-Benzyloxy-4-methoxymethyl-9H-beta-carboline-3-carboxylic acid ethyl ester] here?
The Ki was 6 nM.

What does the source list for `COCc1c(C(=O)OC(C)C)[nH]cc2nc3ccc(OCc4ccccc4)cc3c1-2` [6-Benzyloxy-4-methoxymethyl-9H-beta-carboline-3-carboxylic acid isopropyl ester(Abecarnil)]?
Ki [5]: 12 nM; Ki [4]: > 1000 nM

With `c1ccc2c(c1)[nH]c1c[nH]c3c4cccnc4nc-3c12` [7,12-Dihydro-1,5,7,12-tetraaza-indeno[1,2-a]fluorene] as the compound, how does the Ki [3] read?
Its Ki is 12 nM.

What about the Ki [4] of the same compound?
Its Ki is over 10000 nM.

And the Ki [2]?
The Ki was 16 nM.

Which Ki [3] does the source give for `c1ccc2c(c1)[nH]c1c[nH]c3c4ccncc4nc-3c12` [7,12-Dihydro-2,5,7,12-tetraaza-indeno[1,2-a]fluorene] here?
Its Ki is 24 nM.

What about the Ki [4] of the same compound?
The Ki was over 10000 nM.

What about the Ki [2] of the same compound?
The Ki was 31 nM.
